Results published in patent US6603046B1, “Bis-aromatic a,β-unsaturated ketones” (Lica Pharmaceuticals A/S, priority 1992, dated 2003).
Like-named read-outs stand apart in the source and are kept apart here.

Tests used:
L. major promastigotes = L. major promastigotes from 4-days cultures, 3H-thymidine uptake (Examples 5, 14); assay type: cell-based, Leishmania major; conditions: for inhibition at 0.5 µg/mL / inhibition at 1 µg/mL / inhibition at 5 µg/mL / inhibition at 10 µg/mL: Leishmania major; for inhibition at 0.5 µg/mL: 0.5 μg/ml; for inhibition at 1 µg/mL: 1 μg/ml; for inhibition at 5 µg/mL: 5 μg/ml; for inhibition at 10 µg/mL: 10 μg/ml
Protocol: Parasite cultures. The same parasite culture as described in Example 4. Promastigotes were harvested on day 4 of the culture and used for the parasiticidal assay.
Effect on promastigotes. […] Following incubation, […] of ^3H-thymidine was added to each well and further incubated for 18 hrs. Promastigotes were then harvested on filter paper by means of a cell harvester (Skatron, Lierbyen, Norway), extensively washed with distilled water and counted in a scintillation counter (Minaxi Ti-Carb 4000, United Technologies, Packard, USA).
L. major promastigotes. The L. major promastigotes were prepared as described in Example 4 and harvested after 4 days.

human lymphocytes = assay: Lymphocyte Proliferation Assay, 3H-thymidine incorporation (Example 13); conditions: Homo sapiens, Lymphocyte, read-out: inhibition of lymphocytes (lower figure)
[1] = read-out: percentage inhibition of 3H-thymidine uptake (mean ± SEM), Table 5.1
[2] = Table 14.1, read-out: percentage inhibition of promastigotes (upper figure)

Structure (SMILES) | inhibition at 0.5 µg/mL (L. major promastigotes; [1]) [%] | inhibition at 1 µg/mL (L. major promastigotes; [1]) [%] | inhibition at 5 µg/mL (L. major promastigotes; [1]) [%] | inhibition at 10 µg/mL (L. major promastigotes; [1]) [%] | inhibition at 0.5 µg/mL (L. major promastigotes; [2]) [%] | inhibition at 1 µg/mL (L. major promastigotes; [2]) [%] | inhibition at 5 µg/mL (L. major promastigotes; [2]) [%] | inhibition at 10 µg/mL (L. major promastigotes; [2]) [%] | inhibition at 0.5 µg/mL (human lymphocytes) [%] | inhibition at 1 µg/mL (human lymphocytes) [%] | inhibition at 5 µg/mL (human lymphocytes) [%] | inhibition at 10 µg/mL (human lymphocytes) [%] | activity against Leishmania parasites in vitro (L. major promastigotes)
COCCOCOc1ccc(C(=O)/C=C/c2ccc(OC)cc2OC)cc1 | 20 | 14 | 31 | 60.5 ± 5.6 | – | – | – | – | – | – | – | – | –
O=C(/C=C/c1ccc(O)c(O)c1)c1ccc(O)cc1O | – | – | – | – | 7 | 8 | 4.2 | 10.6 | 0 | 1 | 12 | 51 | –
O=C(/C=C/c1ccccc1)c1ccc(F)cc1 | – | – | – | – | – | – | 88 | 99 | – | – | – | – | –
COc1cc(OC)c(/C=C/C(=O)c2ccc(O)cc2)c(OC)c1 | – | – | – | – | 25 ± 9.5 | 25.6 ± 10.9 | 23.6 ± 10.9 | 25.1 ± 17.3 | 0 | 0 | 48 | 63.6 | –
COc1ccc(/C=C/C(=O)c2ccc(OC)cc2)cc1 | – | – | – | – | 11.7 ± 9.2 | 8.3 ± 4.6 | 35.6 ± 23.4 | 51.8 ± 15.8 | 0 | 0 | 0 | 0 | –
C=CCOc1ccc(C(=O)/C=C/c2ccccc2OC)cc1 | – | – | – | – | 20.9 ± 7.7 | 25.8 ± 15.3 | 52.8 ± 19.1 | 76.6 ± 22.4 | 0 | 0 | 1.1 | 80.1 | –
COc1ccc(/C=C/C(=O)c2ccccc2OCC=C(C)C)c(OC)c1 | – | – | – | – | 4.3 | 1.8 | 49 | 83.2 | 7.1 | 6.6 | 8.7 | 35.9 | –
C=CCOc1ccc(C(=O)/C=C/c2c(OC)cc(OC)cc2OC)cc1 | – | – | – | – | 25 to 44 | 15 to 46 | 14 to 50 | 22 to 49 | 8 | 12 | 24 | 48 | –
C=CCOc1ccc(C(=O)/C=C/c2cc(OC)c(OC)c(OC)c2)cc1 | – | – | – | – | 11 to 45 | 16 to 47 | 44 to 60 | 86 to 91 | 4 | 4 | 38 | 98 | –
C=CCOc1ccc(C(=O)/C=C/c2cc(OC)c(OC)cc2OC)cc1 | – | – | – | – | 24 ± 12 | 23.8 ± 12.5 | 23.2 ± 12.8 | 28.8 ± 16 | 0 | 0 | 0 | 27.6 | –
COCCOCOc1ccc(C(=O)/C=C/c2ccc(OCC=C(C)C)cc2OC)cc1 | – | – | – | – | 11.5 | 14 | 33.1 | 61.5 | 0 | 8.1 | 14.1 | 28.3 | –
COc1ccc(/C=C/C(=O)c2ccc(OCOC(=O)C(C)(C)C)cc2)c(OC)c1 | – | – | – | – | 3.9 | 0 | 7.9 | 28.6 | 7.1 | 8.2 | 9 | 32.7 | –
O=C(c1ccccc1)C1OC1c1ccccc1 (stereo not drawn) | – | – | – | – | 28.4 ± 13 | 33.4 ± 15.4 | 73.2 ± 17.8 | 88 ± 7.5 | 0 | 0 | 2 | 85.4 | –
COc1ccc(CCC(=O)c2ccco2)c(OC)c1 | – | – | – | – | 9.5 | 9.4 | 55.1 | 89.6 | 3.6 | 11.7 | 33.6 | 41.9 | –
COc1ccc(CCC(=O)c2ccc[nH]2)c(OC)c1 | – | – | – | – | 0.6 | 9.4 | 18.5 | 40.6 | 10 | 2 | 20 | 41.9 | –
COc1ccc(CCC(=O)c2ccc(O)cc2)c(OC)c1 [3-(2,4-dimethoxyphenyl)-1-(4-hydroxyphenyl)propan-1-on, reference compound] | – | – | – | – | – | – | – | – | – | – | – | – | very low activity
